Experimental data as given in publication PMC7093416, “Selective USP7 inhibition elicits cancer cell killing through a p53-dependent mechanism” (Scientific Reports, 2020).

Tests used:
[1] = target: USP7 (Homo sapiens, UniProt Q93009); test: XL177A-DTB chemoproteomic profiling with XL177A competition, USP7; assay type: binding; parameters: endogenous in cells; host or cells: HEK 293AD lysate
Procedure: HEK 293AD cells were lysed as described above, and the lysate was cleared by centrifugation. […] SDS was added to a final concentration of 1.2% (27.2 μL of a 10% stock), and denatured by heating to 80 °C for 5 minutes. After cooling to RT, 1125 μL 1X PBS was added to dilute the final SDS concentration to 0.2%. 50 μL streptavidin agarose slurry was added to each sample, followed by incubation at RT for 3 hours. After streptavidin enrichment, samples were washed vigorously (2×0.2% SDS, 3x PBS, 3x ddH2O). After the final wash, all supernatant was removed using a flat-bottom tip, and the resin was flash frozen and stored at −80 °C until workup for TMT labeling.
(§1) To remove rapigest, recovered supernatants were acidified with 10% TFA, incubated at 37 °C for 45 minutes, and centrifuged at 14,000 rpm for 15 minutes at 4 °C. Peptides were then desalted by C18, and dried by vacuum centrifugation. Dried peptides were reconstituted in 50 mM pH8.0 TEAB and labeled with TMT reagent at RT for 1 hour. TMT reactions were pooled and treated with hydroxylamine according to the manufacturer’s instructions. Peptide mixtures were then dried, reconstituted in 50 mM ammonium bicarbonate and desalted by SP3[53]. Eluted peptides were then analyzed by nanoflow LC-MS/MS as described[64] with a NanoAcquity UPLC system (Waters, Milford, MA) interfaced to a QExactive HF mass spectrometer (Thermofisher Scientific, San Jose, CA). TMT labeled peptides were injected onto a precolumn (4 cm POROS 10R2, Applied Biosystems, Framingham, MA), resolved on an analytical column (30 µm I.D. × 50 cm packed with 5 µm Monitor C18) and introduced to the mass spectrometer by ESI (spray voltage = 3.5 kV, flow rate ~30 nL/min). The mass spectrometer was operated in data dependent mode such that the 15 most abundant ions in each MS scan (m/z 300–2000, 120 K resolution, target = 3E6, lock mass for 445.120025 enabled) were subjected to MS/MS (m/z 100–2000, 30 K resolution, target = 1E5, max fill time = 100 ms). Dynamic exclusion was selected with a repeat count of 1 and an exclusion time of 30 seconds. MS/MS data was extracted to.mgf using mulitplierz scripts[54],[55] and searched against a forward-reverse human NCBI refseq database using Mascot version 2.6. Search parameters specified fixed carbamidomethylation of cysteine, fixed N-terminal and lysine TMT labelling, and variable oxidation (methionine). Additional multiplierz scripts were used to filter results to 1% FDR and derive protein-level aggregate reporter ion intensities using peptides mapping uniquely into the genome.

[2] = target: T1, ANXA5 (Homo sapiens, UniProt P08758); test: XL177A-DTB chemoproteomic profiling with XL177A competition, ANXA5; assay type: binding; details: ANXA5 reporter ion intensity
T1 construct: endogenous in cells; host or cells: HEK 293AD lysate
T1 sequence (P08758 1-320): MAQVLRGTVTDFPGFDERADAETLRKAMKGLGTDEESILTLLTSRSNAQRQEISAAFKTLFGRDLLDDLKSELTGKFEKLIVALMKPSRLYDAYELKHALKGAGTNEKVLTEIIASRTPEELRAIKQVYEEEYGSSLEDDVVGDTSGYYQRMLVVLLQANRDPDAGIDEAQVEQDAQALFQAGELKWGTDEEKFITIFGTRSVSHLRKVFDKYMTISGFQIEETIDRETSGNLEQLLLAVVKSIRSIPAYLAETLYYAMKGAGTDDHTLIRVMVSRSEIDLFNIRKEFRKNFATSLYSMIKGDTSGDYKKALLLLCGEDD
Procedure: HEK 293AD cells were lysed as described above, and the lysate was cleared by centrifugation. Samples were diluted to 10 mg/mL, and 200 μL lysate (2 mg protein total) was incubated with the indicated concentrations of XL177A for 4 hours at RT, then 2 μM of WH114A for 4 additional hours. SDS was added to a final concentration of 1.2% (27.2 μL of a 10% stock), and denatured by heating to 80 °C for 5 minutes. After cooling to RT, 1125 μL 1X PBS was added to dilute the final SDS concentration to 0.2%. 50 μL streptavidin agarose slurry was added to each sample, followed by incubation at RT for 3 hours. After streptavidin enrichment, samples were washed vigorously (2×0.2% SDS, 3x PBS, 3x ddH2O). After the final wash, all supernatant was removed using a flat-bottom tip, and the resin was flash frozen and stored at −80 °C until workup for TMT labeling.
as §1

[3] = USP7 reporter ion intensity, XL177A-DTB pulldown, HEK293AD lysate pre-treated 100nM XL177A
[4] = USP7 reporter ion intensity, XL177A-DTB pulldown, HEK293AD lysate pre-treated 1uM XL177A
[5] = USP7 reporter ion intensity, XL177A-DTB pulldown, HEK293AD lysate pre-treated 10uM XL177A
[6] = USP7 reporter ion intensity, average of Run 1 and Run 2, 100nM XL177A
[7] = USP7 reporter ion intensity, average of Run 1 and Run 2, 1uM XL177A
[8] = USP7 reporter ion intensity, average of Run 1 and Run 2, 10uM XL177A
[9] = XL177A-DTB pulldown, HEK293AD lysate pre-treated 100nM XL177A
[10] = XL177A-DTB pulldown, HEK293AD lysate pre-treated 1uM XL177A
[11] = XL177A-DTB pulldown, HEK293AD lysate pre-treated 10uM XL177A
[12] = average of Run 1 and Run 2, 100nM XL177A
[13] = average of Run 1 and Run 2, 1uM XL177A
[14] = average of Run 1 and Run 2, 10uM XL177A

Chain of USP7 (Q93009 whole entry): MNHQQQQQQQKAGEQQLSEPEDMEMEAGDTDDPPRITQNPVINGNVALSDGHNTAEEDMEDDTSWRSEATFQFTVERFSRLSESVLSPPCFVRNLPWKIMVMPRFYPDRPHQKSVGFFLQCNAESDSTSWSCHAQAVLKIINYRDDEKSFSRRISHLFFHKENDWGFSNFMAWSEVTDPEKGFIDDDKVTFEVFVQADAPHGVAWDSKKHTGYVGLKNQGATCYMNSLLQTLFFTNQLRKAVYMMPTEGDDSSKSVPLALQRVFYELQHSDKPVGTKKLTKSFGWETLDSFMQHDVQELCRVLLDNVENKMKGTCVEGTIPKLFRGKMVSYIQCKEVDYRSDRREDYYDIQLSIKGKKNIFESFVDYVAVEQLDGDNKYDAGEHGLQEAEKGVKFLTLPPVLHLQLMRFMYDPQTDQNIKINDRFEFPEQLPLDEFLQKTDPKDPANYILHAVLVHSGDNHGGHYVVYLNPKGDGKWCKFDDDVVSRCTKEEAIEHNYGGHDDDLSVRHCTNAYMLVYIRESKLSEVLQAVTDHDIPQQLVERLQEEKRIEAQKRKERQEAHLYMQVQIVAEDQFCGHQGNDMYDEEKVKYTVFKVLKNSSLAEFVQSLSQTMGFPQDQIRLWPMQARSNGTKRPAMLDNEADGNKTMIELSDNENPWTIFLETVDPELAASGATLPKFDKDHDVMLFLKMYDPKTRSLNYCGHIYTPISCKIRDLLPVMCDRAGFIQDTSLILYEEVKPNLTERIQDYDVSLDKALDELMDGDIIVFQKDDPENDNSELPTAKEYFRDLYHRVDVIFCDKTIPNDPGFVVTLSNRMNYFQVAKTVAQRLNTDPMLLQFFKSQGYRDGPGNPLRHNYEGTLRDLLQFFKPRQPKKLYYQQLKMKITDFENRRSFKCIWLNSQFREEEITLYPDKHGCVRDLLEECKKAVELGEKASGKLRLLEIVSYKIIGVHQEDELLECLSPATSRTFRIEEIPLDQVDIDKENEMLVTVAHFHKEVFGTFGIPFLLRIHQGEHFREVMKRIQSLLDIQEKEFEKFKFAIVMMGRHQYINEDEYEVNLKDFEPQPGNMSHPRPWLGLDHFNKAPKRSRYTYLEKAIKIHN

## CN1CCN(CCC(=O)Nc2ccc3c(=O)n(CC4(O)CCN(C(=O)[C@@H](CCCNC(=O)c5ccc6c(Cl)c7c(nc6c5)CCCC7)Cc5ccccc5)CC4)cnc3c2)CC1 [XL177A]
[1]; HEK293 lysate, XL177A 1 or 10 μM, 5 hours, only USP7 of 566 proteins
  inhibition of XL177A-DTB labeling: > 3 fold
[1]; [3]
  Run 1 100nM 1: 31732106
  Run 1 100nM 2: 30184262
  Run 1 100nM 3: 32232481
  Run 2 100nM 1: 31803721
  Run 2 100nM 2: 30185364
  Run 2 100nM 3: 32073312
[1]; [4]
  Run 1 1uM 1: 8663971
  Run 1 1uM 2: 7593596
  Run 1 1uM 3: 8340895
  Run 2 1uM 1: 8601953
  Run 2 1uM 2: 7625246
  Run 2 1uM 3: 8414168
[1]; [5]
  Run 1 10uM 1: 7727617
  Run 1 10uM 2: 7625585
  Run 2 10uM 1: 7739438
  Run 2 10uM 2: 7761626
[1]; [6]
  AVE 100nM 1: 31767914
  AVE 100nM 2: 30184813
  AVE 100nM 3: 32152896
[1]; [7]
  AVE 1uM 1: 8632962
  AVE 1uM 2: 7609421
  AVE 1uM 3: 8377532
[1]; [8]
  AVE 10uM 1: 7733528
  AVE 10uM 2: 7693606
[2]; [9]
  Run 1 100nM 1: 178152
  Run 1 100nM 2: 165955
  Run 1 100nM 3: 128000
  Run 2 100nM 1: 93111
  Run 2 100nM 2: 89444
  Run 2 100nM 3: 79751
[2]; [10]
  Run 1 1uM 1: 144604
  Run 1 1uM 2: 674321
  Run 1 1uM 3: 223998
  Run 2 1uM 1: 92176
  Run 2 1uM 2: 333280
  Run 2 1uM 3: 123099
[2]; [11]
  Run 1 10uM 1: 147137
  Run 1 10uM 2: 166473
  Run 2 10uM 1: 88314
  Run 2 10uM 2: 102591
[2]; [12]
  AVE 100nM 1: 135632
  AVE 100nM 2: 127700
  AVE 100nM 3: 103876
[2]; [13]
  AVE 1uM 1: 118390
  AVE 1uM 2: 503800
  AVE 1uM 3: 173548
[2]; [14]
  AVE 10uM 1: 117726
  AVE 10uM 2: 134532
